Laboratory results from patent US20160158200A1, “Combinations of Hepatitis C Virus Inhibitors” (priority 2013, published 2016).

How the values were obtained:
[1] = system: HCV genotype 1a Y93H variant with tyrosine 93 changed to histidine in the NS5A protein; experiment: microbe, parasite or virus in culture; format: cell-based; conditions: genotype 1a Y93H replicon; test compound titrated with compound N47 fixed at 200 nM versus singly
Method in brief: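 In an HCV genotype 1a replicon cell-based assay carrying the NS5A Y93H substitution, BMS-790052 was tested alone and in combination with a fixed amount of a second test compound. The combinations were examined for synergistic activity.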

[2] = system: HCV genotype 1a L31V variant with leucine 31 changed to valine in the NS5A protein; experiment: microbe, parasite or virus in culture; format: cell-based; conditions: genotype 1a L31V replicon; test compound titrated with compound N47 fixed at 200 nM versus singly

Row | Compound | Fold-Synergistic G-1a (Y93H) [1] | Fold-Synergistic G-1a (L31V) [2]
1 | COC(=O)N[C@H](C(=O)N1[C@@H]2C[C@@H]2C[C@H]1c1nc(-c2cccc3c(-c4ccc(-c5cnc([C@@H]6C[C@H]7C[C@H]7N6C(=O)[C@@H](NC(=O)OC)C(C)C)[nH]5)cc4)cccc23)c[nH]1)C(C)C | >100 fold | >100 fold
2 | COC(=O)N[C@H](C(=O)N1C[C@@H](C)C[C@H]1c1ncc(-c2ccc(-c3ccc(-c4cnc([C@@H]5C[C@H](C)CN5C(=O)[C@@H](NC(=O)OC)C(C)C)[nH]4)cc3)cc2)[nH]1)C(C)C | >100 fold | >10 fold
3 | CN(C)C(C(=O)N1CCC[C@H]1c1nc(-c2ccc3nc([C@@H]4CCCN4C(=O)C(c4ccccc4)N(C)C)[nH]c3c2)c[nH]1)c1ccccc1 (stereo partly drawn) | <10 fold | <10 fold
4 | COC(=O)N[C@H](C(=O)N1CCC[C@H]1c1nc(-c2ccc(-c3ccc(-c4ccc5nc([C@@H]6CCCN6C(=O)[C@@H](NC(=O)OC)C(C)C)[nH]c5c4)cc3)cc2)c[nH]1)C(C)C | >10 fold | >10 fold
5 | CN1CCN(C(C(=O)N2CCC[C@H]2C(=O)Nc2ccc(-c3cnc(-c4ccc(NC(=O)[C@@H]5CCCN5C(=O)C(c5ccccc5)N5CCN(C)CC5)cc4)o3)cc2)c2ccccc2)CC1 (stereo partly drawn) | <10 fold | <10 fold
6 | COC(=O)N[C@H](C(=O)N1CCC[C@H]1c1nc2ccc(-c3cnc(-c4cccc5nc([C@@H]6CCCN6C(=O)[C@@H](NC(=O)OC)C(C)C)[nH]c45)o3)cc2[nH]1)C(C)C | >100 fold | <10 fold
7 | COC(=O)N[C@H](C(=O)N1CCC[C@H]1C(=O)NC1Cc2ccc(-c3ccc4c(c3)CC(NC(=O)[C@@H]3CCCN3C(=O)[C@@H](NC(=O)OC)C(C)C)C4)cc2C1)C(C)C (stereo partly drawn) | >10 fold | >10 fold
8 | O=C(Cc1ccccc1)N1CCC[C@H]1c1nc2cc(-c3ccc4nc([C@@H]5CCCN5C(=O)Cc5ccccc5)[nH]c4c3)ccc2[nH]1 | <10 fold | <10 fold
9 | COC(=O)N[C@H](C(=O)N1C2CC2CC[C@H]1c1ncc(-c2ccc(-c3ccc(-c4cnc([C@@H]5CCC6CC6N5C(=O)[C@@H](NC(=O)OC)C(C)C)[nH]4)cc3)cc2)[nH]1)C(C)C (stereo partly drawn) [drawing 2298] | >100 fold | >100 fold
10 | COC(=O)N[C@@H](C(=O)N1CCC[C@H]1c1ncc(-c2ccc(-c3ccc(-c4cnc([C@@H]5CCCN5C(=O)[C@H](NC(=O)OC)c5ccccc5)[nH]4)cc3)cc2)[nH]1)c1ccccc1 | <10 fold | >10 fold
11 | COC(=O)N[C@H]1CCC[C@H]2CC[C@@H](c3nc(-c4ccc(-c5ccc(-c6c[nH]c([C@@H]7CC[C@@H]8CCC[C@H](NC(=O)OC)C(=O)N87)n6)cc5)cc4)c[nH]3)N2C1=O | <10 fold | <10 fold
12 | O=C(Nc1ccc(C#Cc2ccc(NC(=O)[C@@H]3CCCN3C(=O)Cc3ccccc3)cn2)nc1)[C@@H]1CCCN1C(=O)Cc1ccccc1 | <10 fold | <10 fold
13 | COC(=O)N[C@H](C(=O)N1CCC[C@H]1c1nc(-c2cccc(-c3ccc4nc([C@@H]5CCCN5C(=O)[C@@H](NC(=O)OC)C(C)C)[nH]c4c3)c2)c[nH]1)C(C)C | <10 fold | <10 fold
14 | C[C@H](NC(=O)OCc1ccccc1)c1nc2ccc(CCc3ccc4nc([C@H](C)NC(=O)OCc5ccccc5)[nH]c4c3)cc2[nH]1 | <10 fold | <10 fold
15 | COC(=O)N[C@H](C(=O)N1[C@@H]2C[C@@H]2C[C@H]1c1ncc(-c2ccc(-c3ccc4nc(-c5cnc([C@@H]6C[C@H]7C[C@H]7N6C(=O)[C@@H](NC(=O)OC)C(C)C)[nH]5)ccc4c3)cc2)[nH]1)C(C)C | >10 fold | <10 fold
16 | CN1CCN(C(C(=O)N2CCC[C@H]2C(=O)Nc2ccc(C#Cc3ccc(NC(=O)[C@@H]4CCCN4C(=O)C(c4ccccc4)N4CCN(C)CC4)cc3)cc2)c2ccccc2)CC1 (stereo partly drawn) | <10 fold | <10 fold
17 | CCN(CC)[C@@H](C(=O)N1CCC[C@H]1c1nc2c([nH]1)CCCc1cc(-c3ccc4nc([C@@H]5CCCN5C(=O)[C@@H](c5ccccc5)N(CC)CC)[nH]c4c3)ccc1-2)c1ccccc1 | <10 fold | <10 fold
18 | COC(=O)N[C@H](C(=O)N1[C@@H]2C[C@@H]2C[C@H]1c1ncc(-c2ccc(-c3ccc4cc(-c5cnc([C@@H]6C[C@H]7C[C@H]7N6C(=O)[C@@H](NC(=O)OC)C(C)C)[nH]5)ccc4c3)cc2)[nH]1)C(C)C | >10 fold | <10 fold

Row | Compound | Fold-Synergistic G-1a (Y93H) [1] | Fold-Synergistic G-1a (L31V) [2]
19 | COC(=O)N[C@@H](C(=O)N1CCC[C@H]1c1ncc(-c2nc3cc4sc(-c5cnc([C@@H]6CCCN6C(=O)[C@H](NC(=O)OC)c6ccccc6)[nH]5)nc4cc3s2)[nH]1)c1ccccc1 | >100 fold | <10 fold
20 | COC(=O)N[C@H](C(=O)N1C2CC2C[C@H]1c1nc2ccc3cc(C#Cc4ccc5c(ccc6nc([C@@H]7C[C@H]8C[C@H]8N7C(=O)[C@@H](NC(=O)OC)C(C)C)[nH]c65)c4)ccc3c2[nH]1)C(C)C (stereo partly drawn) | >100 fold | <10 fold
21 | CN(C)[C@@H](C(=O)N1CCC[C@H]1c1nc(-c2ccc(COc3ccc(-c4c[nH]c([C@@H]5CCCN5C(=O)[C@@H](c5ccccc5)N(C)C)n4)cc3)cc2)c[nH]1)c1ccccc1 | <10 fold | <10 fold
22 | COC(=O)N[C@H](C(=O)N1CCC[C@H]1C(=O)Nc1cc(-c2ncc(-c3ccc4nc([C@@H]5CCCN5C(=O)[C@@H](c5ccccc5)N(C)C)[nH]c4c3)o2)ccc1C)C(C)C | <10 fold | <10 fold
23 | COC(=O)N[C@H](C(=O)N1CCC[C@H]1c1ncc(-c2cnc(-c3ncc(-c4cnc([C@@H]5CCCN5C(=O)[C@@H](NC(=O)OC)C(C)C)[nH]4)s3)s2)[nH]1)C(C)C | >100 fold | >10 fold
24 | COC(=O)N[C@@H](C)C(=O)N1[C@@H]2CC[C@@H](C2)[C@H]1c1nc(-c2ccc(-c3ccc(-c4cnc([C@@H]5[C@H]6CC[C@H](C6)N5C(=O)[C@H](C)NC(=O)OC)[nH]4)cc3)cc2)c[nH]1 | <10 fold | >10 fold
25 | COC(=O)N[C@H](C(=O)N1CCC[C@H]1c1nc(-c2ccc(-c3ccc4nc([C@@H]5CCCN5C(=O)[C@@H](NC(=O)OC)C(C)C)[nH]c4c3)cc2)c[nH]1)C(C)C | >100 fold | >10 fold
26 | COC(=O)N[C@H](C(=O)N1CCC[C@H]1c1ncc(-c2ccc(-c3ccc(-c4cnc([C@@H]5CCCN5C(=O)[C@@H](NC(=O)OC)C(C)C)[nH]4)cc3)cc2)[nH]1)C(C)C | >100 fold | >100 fold
27 | COC(=O)N[C@H](C(=O)N1CCCC1c1cn(-c2ccc(-c3ccc(-n4cnc(C5CCCN5C(=O)[C@@H](NC(=O)OC)C(C)C)c4)cc3)cc2)cn1)C(C)C (stereo partly drawn) | >10 fold | >10 fold
28 | COC(=O)N[C@@H](C(=O)N1CCC[C@H]1c1nc(-c2ccc(Oc3cccc(-c4cnc([C@@H]5CCCN5C(=O)[C@H](NC(=O)OC)c5ccccc5)[nH]4)c3)cc2)c[nH]1)c1ccccc1 | <10 fold | <10 fold
29 | C[C@](O)(C(=O)N1CCC[C@H]1c1nc2ccc(-c3ccc(-c4ccc5nc([C@@H]6CCCN6C(=O)[C@](C)(O)c6ccccc6)[nH]c5c4)o3)cc2[nH]1)c1ccccc1 | <10 fold | <10 fold
30 | CN(C)[C@@H](C(=O)N1CCCC[C@H]1c1ncc(-c2ccc(-c3ccc(-c4cnc([C@@H]5CCCCN5C(=O)[C@@H](c5ccccc5)N(C)C)[nH]4)cc3)cc2)[nH]1)c1ccccc1 | >10 fold | <10 fold
31 | COC(=O)N[C@H](C(=O)N1[C@@H]2C[C@@H]2C[C@H]1c1ncc(-c2ccc(C#Cc3ccc(-c4cnc([C@@H]5C[C@H]6C[C@H]6N5C(=O)[C@@H](NC(=O)OC)C(C)C)[nH]4)cc3)cc2)[nH]1)C(C)C | >10 fold | <10 fold
32 | COC(=O)N[C@H](C(=O)N1CCC[C@H]1c1nc2cc(-c3ccc4cc(-c5cnc6[nH]c([C@@H]7CCCN7C(=O)[C@@H](NC(=O)OC)C(C)C)nc6c5)ccc4c3)cnc2[nH]1)C(C)C | >10 fold | >10 fold
33 | C[C@H](NC(=O)[C@@H](c1ccccc1)N(C)C)c1ncc(-c2ccc(-c3ccc(-c4cnc([C@@H]5CCCN5C(=O)[C@@H](c5ccccc5)N(C)C)[nH]4)cn3)cc2)[nH]1 | <10 fold | <10 fold
34 | COC(=O)N[C@@H](C(=O)N1CCC[C@H]1c1nc(-c2ccc(Oc3ccc(-c4c[nH]c([C@@H]5CCCN5C(=O)[C@H](NC(=O)OC)c5ccccc5)n4)cc3)cc2)c[nH]1)c1ccccc1 | <10 fold | <10 fold
35 | COC(=O)N[C@H](C(=O)N1[C@@H]2C[C@@H]2C[C@H]1c1ncc(-c2ccc(C#Cc3ccc4c(ccc5[nH]c([C@@H]6C[C@H]7C[C@H]7N6C(=O)[C@@H](NC(=O)OC)C(C)C)nc54)c3)cc2)[nH]1)C(C)C | >10 fold | <10 fold
36 | COC(=O)N[C@H](C(=O)N1CCC[C@H]1c1ncc(-c2ccc(-c3ccc4cc(-c5cnc([C@@H]6CCCN6C(=O)[C@@H](NC(=O)OC)C(C)C)[nH]5)ccc4c3)cc2)[nH]1)C(C)C | >10 fold | <10 fold
